Assay results reported in US20260262643A1, “HERBICIDAL BENZOXAZINES” (FMC CORPORATION, priority 2022, published 2026).

How the values were obtained:
ryegrass, Italian [1] = experiment: Test A preemergence; type: in vivo, Lolium multiflorum
In short: (§1)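 Visual injury ratings on a 0–100 scale (100 = complete control) versus untreated controls, taken 10 days after treatment in greenhouse. Preemergence: directed soil spray onto seeded loam/sand. Postemergence: foliar application at one- to two-leaf stage, plants 2–10 cm. Formulation: non-phytotoxic solvent plus surfactant.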

foxtail, giant [2] = experiment: Test A postemergence; type: in vivo, Setaria faberi; details: postemergence, 10 days; for Foxtail, Giant plant response rating: 125 g ai/ha, 0 to 100 scale, 0 no effect, 100 complete control; for Plant response rating, Foxtail, Giant: 500 g ai/ha, visual injury, 0 to 100 scale (0 no effect, 100 complete control)
In short: as §1

oat, wild [3] = experiment: Test A postemergence; type: in vivo, Avena fatua; details: postemergence, 10 days; for Oat, Wild plant response rating: 125 g ai/ha, 0 to 100 scale, 0 no effect, 100 complete control; for Plant response rating, Oat, Wild: 500 g ai/ha, visual injury, 0 to 100 scale (0 no effect, 100 complete control)
In short: as §1

kochia [4] = experiment: Test A preemergence; type: in vivo, Bassia scoparia
In short: as §1

horseweed = experiment: Test A postemergence; type: in vivo, Erigeron canadensis; details: postemergence, 10 days; for Horseweed plant response rating: 125 g ai/ha, 0 to 100 scale, 0 no effect, 100 complete control; for Plant response rating, Horseweed: 500 g ai/ha, visual injury, 0 to 100 scale (0 no effect, 100 complete control)
In short: as §1

sedge, umbrella = experiment: Test B flooded paddy test; type: in vivo, Cyperus difformis; details: 250 g ai/ha, Flood, 13 days, 0 to 100 scale (0 no effect, 100 complete control)
In short: (§2)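 Each species was raised to the 2-leaf stage. At treatment, each pot received floodwater 3 cm deep, with the chemical delivered into the water. Greenhouse holding followed for 13 days, then percent control was estimated visually versus untreated pots.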

soybean [5] = experiment: Test A preemergence; type: in vivo, Glycine max
In short: as §1

blackgrass [6] = experiment: Test A preemergence; type: in vivo, Alopecurus myosuroides
In short: as §1

goosegrass [7] = experiment: Test A postemergence; type: in vivo, Eleusine indica; details: postemergence, 10 days; for Goosegrass plant response rating: 125 g ai/ha, 0 to 100 scale, 0 no effect, 100 complete control; for Plant response rating, Goosegrass: 500 g ai/ha, visual injury, 0 to 100 scale (0 no effect, 100 complete control)
In short: as §1

wheat [8] = experiment: Test A postemergence; type: in vivo, Triticum aestivum; details: postemergence, 10 days; for Wheat plant response rating: 125 g ai/ha, 0 to 100 scale, 0 no effect, 100 complete control; for Plant response rating, Wheat: 500 g ai/ha, visual injury, 0 to 100 scale (0 no effect, 100 complete control)
In short: as §1

soybean [9] = experiment: Test A postemergence; type: in vivo, Glycine max; details: postemergence, 10 days; for Soybean plant response rating: 125 g ai/ha, 0 to 100 scale, 0 no effect, 100 complete control; for Plant response rating, Soybean: 500 g ai/ha, visual injury, 0 to 100 scale (0 no effect, 100 complete control)
In short: as §1

foxtail, giant [10] = experiment: Test A preemergence; type: in vivo, Setaria faberi
In short: as §1

corn [11] = experiment: Test A postemergence; type: in vivo, Zea mays; details: postemergence, 10 days; for Corn plant response rating: 125 g ai/ha, 0 to 100 scale, 0 no effect, 100 complete control; for Plant response rating, Corn: 500 g ai/ha, visual injury, 0 to 100 scale (0 no effect, 100 complete control)
In short: as §1

wheat [12] = experiment: Test A preemergence; type: in vivo, Triticum aestivum
In short: as §1

pigweed, palmer [13] = experiment: Test A preemergence; type: in vivo, Amaranthus palmeri
In short: as §1

goosegrass [14] = experiment: Test A preemergence; type: in vivo, Eleusine indica
In short: as §1

ducksalad = experiment: Test B flooded paddy test; type: in vivo, Heteranthera limosa; details: 250 g ai/ha, Flood, 13 days, 0 to 100 scale (0 no effect, 100 complete control)
In short: as §2

ryegrass, Italian [15] = experiment: Test A postemergence; type: in vivo, Lolium multiflorum; details: postemergence, 10 days; for Ryegrass, Italian plant response rating: 125 g ai/ha, 0 to 100 scale, 0 no effect, 100 complete control; for Plant response rating, Ryegrass, Italian: 500 g ai/ha, visual injury, 0 to 100 scale (0 no effect, 100 complete control)
In short: as §1

pigweed, palmer [16] = experiment: Test A postemergence; type: in vivo, Amaranthus palmeri; details: postemergence, 10 days; for Pigweed, Palmer plant response rating: 125 g ai/ha, 0 to 100 scale, 0 no effect, 100 complete control; for Plant response rating, Pigweed, Palmer: 500 g ai/ha, visual injury, 0 to 100 scale (0 no effect, 100 complete control)
In short: as §1

blackgrass [17] = experiment: Test A postemergence; type: in vivo, Alopecurus myosuroides; details: postemergence, 10 days; for Blackgrass plant response rating: 125 g ai/ha, 0 to 100 scale, 0 no effect, 100 complete control; for Plant response rating, Blackgrass: 500 g ai/ha, visual injury, 0 to 100 scale (0 no effect, 100 complete control)
In short: as §1

rice = experiment: Test B flooded paddy test; type: in vivo, Oryza sativa; details: 250 g ai/ha, Flood, 13 days, 0 to 100 scale (0 no effect, 100 complete control)
In short: as §2

corn [18] = experiment: Test A preemergence; type: in vivo, Zea mays
In short: as §1

barnyardgrass = experiment: Test B flooded paddy test; type: in vivo, Echinochloa crus-galli; details: 250 g ai/ha, Flood, 13 days, 0 to 100 scale (0 no effect, 100 complete control)
In short: as §2

galium = experiment: Test A postemergence; type: in vivo, Galium aparine; details: postemergence, 10 days; for Galium plant response rating: 125 g ai/ha, 0 to 100 scale, 0 no effect, 100 complete control; for Plant response rating, Galium: 500 g ai/ha, visual injury, 0 to 100 scale (0 no effect, 100 complete control)
In short: as §1

ragweed [19] = experiment: Test A postemergence; type: in vivo, Ambrosia artemisiifolia; details: postemergence, 10 days; for Ragweed plant response rating: 125 g ai/ha, 0 to 100 scale, 0 no effect, 100 complete control; for Plant response rating, Ragweed: 500 g ai/ha, visual injury, 0 to 100 scale (0 no effect, 100 complete control)
In short: as §1

oat, wild [20] = experiment: Test A preemergence; type: in vivo, Avena fatua
In short: as §1

kochia [21] = experiment: Test A postemergence; type: in vivo, Bassia scoparia; details: postemergence, 10 days; for Kochia plant response rating: 125 g ai/ha, 0 to 100 scale, 0 no effect, 100 complete control; for Plant response rating, Kochia: 500 g ai/ha, visual injury, 0 to 100 scale (0 no effect, 100 complete control)
In short: as §1

ragweed [22] = experiment: Test A preemergence; type: in vivo, Ambrosia artemisiifolia
In short: as §1

[23] = 125 g ai/ha, visual injury after 10 days, 0 to 100 scale, 0 is no effect, 100 is complete control
[24] = 500 g ai/ha, 0 to 100 scale (0 no effect, 100 complete control), 10 days

SMILES: Cc1ccc(-n2cnc(C(C)(C)C)n2)cc1C(=O)N1C[C@H](C)Oc2c(C)cccc21 [Compound 100]
- Plant response rating, Ryegrass, Italian (ryegrass, Italian [1]; [23]): 90
- Plant response rating, Ryegrass, Italian (ryegrass, Italian [1]; [24]): 100
- Foxtail, Giant plant response rating (foxtail, giant [2]): 50
- Plant response rating, Foxtail, Giant (foxtail, giant [2]): 90
- Oat, Wild plant response rating (oat, wild [3]): 30
- Plant response rating, Oat, Wild (oat, wild [3]): 70
- Plant response rating, Kochia (kochia [4]; [23]): 90
- Plant response rating, Kochia (kochia [4]; [24]): 100
- Horseweed plant response rating (horseweed): 40
- Plant response rating, Horseweed (horseweed): 70
- Plant response rating, Sedge, Umbrella (sedge, umbrella): 55
- Plant response rating, Soybean (soybean [5]; [23]): 80
- Plant response rating, Soybean (soybean [5]; [24]): 100
- Plant response rating, Blackgrass (blackgrass [6]; [23]): 60
- Plant response rating, Blackgrass (blackgrass [6]; [24]): 70
- Goosegrass plant response rating (goosegrass [7]): 70
- Plant response rating, Goosegrass (goosegrass [7]): 100
- Wheat plant response rating (wheat [8]): 30
- Plant response rating, Wheat (wheat [8]): 40
- Soybean plant response rating (soybean [9]): 100
- Plant response rating, Soybean (soybean [9]): 100
- Plant response rating, Foxtail, Giant (foxtail, giant [10]; [23]): 100
- Plant response rating, Foxtail, Giant (foxtail, giant [10]; [24]): 100
- Corn plant response rating (corn [11]): 70
- Plant response rating, Corn (corn [11]): 70
- Plant response rating, Wheat (wheat [12]; [23]): 50
- Plant response rating, Wheat (wheat [12]; [24]): 60
- Plant response rating, Pigweed, Palmer (pigweed, palmer [13]; [23]): 100
- Plant response rating, Pigweed, Palmer (pigweed, palmer [13]; [24]): 100
- Plant response rating, Goosegrass (goosegrass [14]; [23]): 100
- Plant response rating, Goosegrass (goosegrass [14]; [24]): 100
- Plant response rating, Ducksalad (ducksalad): 40
- Ryegrass, Italian plant response rating (ryegrass, Italian [15]): 50
- Plant response rating, Ryegrass, Italian (ryegrass, Italian [15]): 80
- Pigweed, Palmer plant response rating (pigweed, palmer [16]): 70
- Plant response rating, Pigweed, Palmer (pigweed, palmer [16]): 100
- Blackgrass plant response rating (blackgrass [17]): 30
- Plant response rating, Blackgrass (blackgrass [17]): 90
- Plant response rating, Rice (rice): 0
- Plant response rating, Corn (corn [18]; [23]): 0
- Plant response rating, Corn (corn [18]; [24]): 40
- Plant response rating, Barnyardgrass (barnyardgrass): 0
- Galium plant response rating (galium): 80
- Plant response rating, Galium (galium): 100
- Ragweed plant response rating (ragweed [19]): 60
- Plant response rating, Ragweed (ragweed [19]): 70
- Plant response rating, Oat, Wild (oat, wild [20]; [23]): 40
- Plant response rating, Oat, Wild (oat, wild [20]; [24]): 90
- Kochia plant response rating (kochia [21]): 80
- Plant response rating, Kochia (kochia [21]): 90
- Plant response rating, Ragweed (ragweed [22]; [23]): 80
- Plant response rating, Ragweed (ragweed [22]; [24]): 100

SMILES: CCc1ccc(-n2cnc(C(C)(C)C)n2)cc1C(=O)N1C[C@H](C)Oc2c(Cl)cccc21 [Compound 102]
- Plant response rating, Ryegrass, Italian (ryegrass, Italian [1]; [23]): 80
- Plant response rating, Ryegrass, Italian (ryegrass, Italian [1]; [24]): 100
- Foxtail, Giant plant response rating (foxtail, giant [2]): 80
- Plant response rating, Foxtail, Giant (foxtail, giant [2]): 90
- Oat, Wild plant response rating (oat, wild [3]): 10
- Plant response rating, Oat, Wild (oat, wild [3]): 60
- Plant response rating, Kochia (kochia [4]; [23]): 80
- Plant response rating, Kochia (kochia [4]; [24]): 100
- Horseweed plant response rating (horseweed): 0
- Plant response rating, Horseweed (horseweed): 0
- Plant response rating, Sedge, Umbrella (sedge, umbrella): 95
- Plant response rating, Soybean (soybean [5]; [23]): 50
- Plant response rating, Soybean (soybean [5]; [24]): 100
- Plant response rating, Blackgrass (blackgrass [6]; [23]): 30
- Plant response rating, Blackgrass (blackgrass [6]; [24]): 50
- Goosegrass plant response rating (goosegrass [7]): 80
- Plant response rating, Goosegrass (goosegrass [7]): 80
- Wheat plant response rating (wheat [8]): 10
- Plant response rating, Wheat (wheat [8]): 30
- Soybean plant response rating (soybean [9]): 100
- Plant response rating, Soybean (soybean [9]): 100
- Plant response rating, Foxtail, Giant (foxtail, giant [10]; [23]): 90
- Plant response rating, Foxtail, Giant (foxtail, giant [10]; [24]): 100
- Corn plant response rating (corn [11]): 20
- Plant response rating, Corn (corn [11]): 80
- Plant response rating, Wheat (wheat [12]; [23]): 0
- Plant response rating, Wheat (wheat [12]; [24]): 0
- Plant response rating, Pigweed, Palmer (pigweed, palmer [13]; [23]): 100
- Plant response rating, Pigweed, Palmer (pigweed, palmer [13]; [24]): 100
- Plant response rating, Goosegrass (goosegrass [14]; [23]): 100
- Plant response rating, Goosegrass (goosegrass [14]; [24]): 100
- Plant response rating, Ducksalad (ducksalad): 65
- Ryegrass, Italian plant response rating (ryegrass, Italian [15]): 50
- Plant response rating, Ryegrass, Italian (ryegrass, Italian [15]): 50
- Pigweed, Palmer plant response rating (pigweed, palmer [16]): 90
- Plant response rating, Pigweed, Palmer (pigweed, palmer [16]): 100
- Blackgrass plant response rating (blackgrass [17]): 0
- Plant response rating, Blackgrass (blackgrass [17]): 60
- Plant response rating, Rice (rice): 10
- Plant response rating, Corn (corn [18]; [23]): 10
- Plant response rating, Corn (corn [18]; [24]): 20
- Plant response rating, Barnyardgrass (barnyardgrass): 10
- Galium plant response rating (galium): 50
- Plant response rating, Galium (galium): 100
- Ragweed plant response rating (ragweed [19]): 20
- Plant response rating, Ragweed (ragweed [19]): 40
- Plant response rating, Oat, Wild (oat, wild [20]; [23]): 40
- Plant response rating, Oat, Wild (oat, wild [20]; [24]): 80
- Kochia plant response rating (kochia [21]): 90
- Plant response rating, Kochia (kochia [21]): 90
- Plant response rating, Ragweed (ragweed [22]; [23]): 0
- Plant response rating, Ragweed (ragweed [22]; [24]): 0
